Results reported in ChEMBL document CHEMBL1122370 (J Med Chem, 1983).

Experiments:
[1] = tested on: Mus musculus; test: Average weight of the mouse after treating with 20 mg/kg dose for 1 day.; format: functional; set-up: unit not given here
[2] = tested on: L1210; test: In vivo antitumor activity against L1210 leukemia in 5 mice measured as Increased life span.; format: functional, Mus musculus
[3] = tested on: L1210; test: In vivo antitumor activity against L1210 leukemia in 5 mice measured as Increased life span at 40 mg/kg.; format: functional; conditions: Mus musculus
[4] = tested on: Mus musculus; test: (§1) Average weight of the mouse after treating with 40 mg/kg dose for 1 day.; format: functional; set-up: unit not given here
[5] = tested on: L1210; test: In vivo antitumor activity against L1210 leukemia in 5 mice measured as Increased life span at 20 mg/kg.; format: functional; conditions: Mus musculus
[6] = tested on: L1210; test: In vivo antitumor activity against L1210 leukemia in 5 mice measured as median survival range at 20 mg/kg; Value ranges from(12-14); format: functional, Mus musculus
[7] = tested on: Mus musculus; test: Average weight of the mouse after treating with 80 mg/kg dose for 7 days.; format: functional; set-up: unit not given beside the values
[8] = tested on: L1210; test: In vivo antitumor activity against L1210 leukemia in 5 mice measured as median survival range at 80 mg/kg; Value ranges from(13-20).; format: functional, Mus musculus
[9] = tested on: L1210; test: In vivo antitumor activity against L1210 leukemia in 19 mice measured as T/C value; T/C = 19/9; format: functional, Mus musculus
[10] = tested on: Mus musculus; test: Average weight of the mouse after treating with 80 mg/kg dose for 1 day.; format: functional; set-up: unit not given here
[11] = tested on: Mus musculus; test: Average weight of the mouse after treating with 40 mg/kg dose for 7 days.; format: functional; set-up: unit not given beside the values
[12] = tested on: L1210; test: In vivo antitumor activity against L1210 leukemia in 5 mice measured as median survival range at 40 mg/kg; Value ranges from(14-17); set-up: dose 40 mg/kg; conditions: mouse
[13] = tested on: Mus musculus; test: Average weight of the mouse after treating with 20 mg/kg dose for 7 days.; format: functional; set-up: unit not given beside the values
[14] = tested on: L1210; test: In vivo antitumor activity against L1210 leukemia in 5 mice measured as median survival range at 80 mg/kg; Value ranges from(13-26); format: functional, Mus musculus
[15] = tested on: L1210; test: In vivo antitumor activity against L1210 leukemia in 5 mice measured as Increased life span at 140 mg/kg.; format: functional; conditions: Mus musculus
[16] = tested on: L1210; test: In vivo antitumor activity against L1210 leukemia in 5 mice measured as median survival range at 140 mg/kg; Value ranges from(8-27).; format: functional, Mus musculus
[17] = tested on: L1210; test: In vivo antitumor activity against L1210 leukemia in 10 mice measured as median survival range at 120 mg/kg; Value ranges from(13-36); format: functional, Mus musculus
[18] = tested on: Mus musculus; test: Average weight of the mouse after treating with 140 mg/kg dose for 7 days.; format: functional
[19] = tested on: L1210; test: In vivo antitumor activity against L1210 leukemia in 22 mice measured as T/C values(days); T/C = 22/9; format: functional, Mus musculus
[20] = tested on: L1210; test: In vivo antitumor activity against L1210 leukemia in 14 mice measured as T/C values(days); T/C = 14/9; format: functional, Mus musculus
[21] = tested on: L1210; test: In vivo antitumor activity against L1210 leukemia in 10 mice measured as Increased life span at 120 mg/kg.; format: functional; conditions: Mus musculus
[22] = tested on: L1210; test: In vivo antitumor activity against L1210 leukemia in 5 mice measured as T/C values(days); T/C = 21/9; format: functional, Mus musculus
[23] = tested on: Mus musculus; test: Average weight of the mouse after treating with 140 mg/kg dose for 1 day.; format: functional
[24] = tested on: L1210; test: In vivo antitumor activity against L1210 leukemia in 23 mice measured as T/C values(days); T/C = 23/9; format: functional, Mus musculus
[25] = tested on: L1210; test: In vivo antitumor activity against L1210 leukemia in 15 mice measured as T/C values(days); T/C = 15/9; format: functional, Mus musculus
[26] = tested on: Mus musculus; test: Average weight of the mouse after treating with 120 mg/kg dose for 1 day.; format: functional
[27] = tested on: L1210; test: In vivo antitumor activity against L1210 leukemia in 5 mice measured as median survival range at 40 mg/kg; Value ranges from(13-19); format: functional, Mus musculus
[28] = tested on: L1210; test: In vivo antitumor activity against L1210 leukemia in 5 mice measured as median survival range at 20 mg/kg; Value ranges from(11-14); format: functional, Mus musculus
[29] = tested on: Mus musculus; test: Average weight of the mouse after treating with 120 mg/kg dose for 7 days.; format: functional
[30] = tested on: L1210; test: In vivo antitumor activity against L1210 leukemia in 5 mice measured as Increased life span at 80 mg/kg.; format: functional; conditions: Mus musculus
[31] = tested on: L1210; test: In vivo anti tumor activity against L1210 leukemia in 5 mice measured as Increased life span at 45 mg/kg; format: functional; conditions: Mus musculus
[32] = tested on: Mus musculus; test: Average weight change in mouse after treating with 60 mg/kg dose for 7 days.; format: functional
[33] = tested on: L1210; test: In vivo antitumor activity against L1210 leukemia in 9 mice measured as median survival range at 60 mg/kg; Value ranges from (18-21); format: functional, Mus musculus
[34] = tested on: Mus musculus; test: Average weight change in mouse after treating with 30 mg/kg dose for 7 days.; format: functional
[35] = tested on: L1210; test: In vivo antitumor activity against L1210 leukemia in 5 mice measured as median survival range at 30 mg/kg; Value ranges from (10-14); format: functional, Mus musculus
[36] = tested on: Mus musculus; test: Average weight of the mouse after treating with 60 mg/kg dose for 1 day; format: functional
[37] = tested on: Mus musculus; test: Average weight of the mouse after treating with 30 mg/kg dose for 1 day; format: functional
[38] = tested on: L1210; test: In vivo anti tumor activity against L1210 leukemia in 9 mice measured as Increased life span at 60 mg/kg; format: functional; conditions: Mus musculus
[39] = tested on: L1210; test: In vivo antitumor activity against L1210 leukemia in 5 mice measured as T/C values; T/C = 22/9; format: functional, Mus musculus
[40] = tested on: L1210; test: In vivo antitumor activity against L1210 leukemia in 5 mice measured as median survival range at 20 mg/kg; Value ranges from(15-17).; format: functional, Mus musculus
[41] = tested on: L1210; test: In vivo antitumor activity against L1210 leukemia in 5 mice measured as Increased life span at 10 mg/kg.; format: functional; conditions: Mus musculus
[42] = tested on: L1210; test: In vivo anti tumor activity against L1210 leukemia in 5 mice measured as Increased life span at 40 mg/kg.; format: functional; conditions: Mus musculus
[43] = tested on: L1210; test: In vivo antitumor activity against L1210 leukemia in 5 mice measured as median survival range at 40 mg/kg; Value ranges from(21-31).; format: functional, Mus musculus
[44] = tested on: L1210; test: In vivo antitumor activity against L1210 leukemia in 5 mice measured as median survival range at 10 mg/kg; Value ranges from(14-22); format: functional, Mus musculus
[45] = tested on: L1210; test: In vivo antitumor activity against L1210 leukemia in 16 mice measured as T/C values; T/C = 16/9; format: functional, Mus musculus
[46] = tested on: L1210; test: In vivo antitumor activity against L1210 leukemia in 17 mice measured as T/C values; T/C = 17/9; format: functional, Mus musculus
[47] = tested on: Mus musculus; test: Average weight of the mouse after treating with 10 mg/kg dose for 1 day.; format: functional; set-up: unit not given here
[48] = tested on: Mus musculus; test: as §1; format: functional
[49] = tested on: Mus musculus; test: Average weight of the mouse after treating with 10 mg/kg dose for 7 days.; format: functional

SMILES: CCCCOC(=O)C(CCC(=O)OCc1cccnc1)NC(=O)c1ccc(N(C)Cc2cnc3nc(N)nc(N)c3n2)cc1 (stereo unspecified)
- Average weight [1]: 21.1
- ILS [2]: 137%
- ILS at 40 mg/kg [3]: 75%
- Average weight [4]: 21.2
- ILS at 20 mg/kg [5]: 50%
- Range [6]: 14
- Weight change [7]: 0.3
- Range [8]: 20
- T/C [9]: 9
- Average weight [10]: 22
- Weight change [11]: 1.7
- Range [12]: 17
- Weight change [13]: 2.4

SMILES: CCCC(C)OC(=O)CCC(NC(=O)c1cc(Cl)c(N(C)Cc2cnc3nc(N)nc(N)c3n2)c(Cl)c1)C(=O)OC(C)CCC (stereo unspecified)
- Average weight [1]: 22.1
- Range [14]: 26
- ILS at 140 mg/kg [15]: 155%
- Range [16]: 27
- ILS at 40 mg/kg [3]: 66%
- Range [17]: 36
- Average weight [4]: 20.6
- ILS at 20 mg/kg [5]: 55%
- Weight change [18]: 3.2
- T/C [19]: 22
- T/C [20]: 9
- ILS at 120 mg/kg [21]: 145%
- T/C [22]: 9
- Weight change [7]: 1.5
- Average weight [10]: 21.2
- Weight change [11]: 0.1
- Average weight [23]: 21.6
- T/C [24]: 9
- T/C [25]: 9
- Weight change [13]: 2.6
- Average weight [26]: 21.5
- Range [27]: 19
- Range [28]: 14
- Weight change [29]: 1.4
- ILS at 80 mg/kg [30]: 133%

SMILES: CCCCCCCCCCCCOC(=O)CCC(NC(=O)c1ccc(N(C)Cc2cnc3nc(N)nc(N)c3n2)cc1)C(=O)OCCCCCCCCCCCC (stereo unspecified)
- ILS at 45 mg/kg [31]: 33%
- Weight change [32]: 0
- Range [33]: 21
- Weight change [34]: 3
- Range [35]: 14
- Average weight [36]: 24.2
- Average weight [37]: 23.2
- ILS at 60 mg/kg [38]: 100%

SMILES: CN(Cc1cnc2nc(N)nc(N)c2n1)c1ccc(C(=O)NC(CCC(=O)OCc2cccnc2)C(=O)OCc2cccnc2)cc1 (stereo unspecified)
- T/C [39]: 9
- Average weight [1]: 22
- Range [40]: 17
- ILS at 20 mg/kg [5]: 77%
- ILS at 10 mg/kg [41]: 88%
- ILS at 40 mg/kg [42]: 144%
- Range [43]: 31
- Range [44]: 22
- T/C [45]: 9
- T/C [46]: 9
- Weight change [11]: 2
- Average weight [47]: 21.3
- Weight change [13]: 1
- Average weight [48]: 26
- Weight change [49]: 1.1
